“Also recorded” adds a separate entry of the source.
Experiments:
[1] = system: allergic sheep challenged with Ascaris suum antigen; assay: Antigen-induced early and late airway responses (EAR, LAR), pulmonary airflow resistance RL, in allergic sheep; assay type: in vivo
Experimental: (§1) Pulmonary airflow resistance was measured by taking allergic sheep previously verified as dual bronchoconstrictor responders to Ascaris suum antigen. The sheep were intubated with a cuffed nasotracheal tube and pulmonary airflow resistance (RL) was measured by the esophageal balloon catheter technique. Airway responsiveness was determined by first securing cumulative dose response curves to inhaled carbachol (a constrictor agonist) by measuring RL before and after inhalation of buffered saline and after each administration of 10 breaths of increasing concentrations of carbachol (0.25, 0.5, 1.0, 2.0 and 4.0% wt/vol solution). Airway responsiveness was measured by determining the cumulative provocation dose (PD400) of carbachol (in breath units) that increased RL to 400% above baseline. One breath unit was defined as one breath of 1% carbachol solution.
To illustrate the effectiveness of the formulations according to the invention to treat and alleviate allergen related diseases and conditions, including but not limited to the specific diseases and conditions recited herein, sheep were assessed in multiple experiments which compared various formulations containing no active ingredient to animals which were provided formulations comprising a compound of formula I (SSS-02). To measure pulmonary airflow resistance, the sheep were intubated with a cuffed nasotracheal tube and pulmonary airflow resistance (RL) was measured by the esophageal balloon catheter technique. These methods are accepted and well known methods found in the literature.
(§2) For airway studies, each animal's baseline airway responsiveness (PD400) was determined and then, on different experimental days, the test sheep underwent airway challenge with Ascaris suum antigen. RL was measured to establish baseline, then measured again immediately after antigen challenge and hourly for an eight hour period and then a post challenge PD400 was measured 24 hours after antigen challenge. In each of the Figures presented herein, FIGS. 1A, 2A, 3A etc. present day two data measured on an hourly basis for the eight hour period and contain control data (closed circles) and drug treatment data (open circles or triangles (closed or open)). The drug treatment experiments were conducted on the same animals used in the control studies but after a period of several weeks following the day 3 PD400 measurements. FIGS. 1B, 2B, 3B etc. contain the day one baseline PD400 data and day three PD400 data following antigen challenge in control or drug treated animals.
(§3) Data were expressed or may be expressed as (a) mean+/−SE % change of RL and (b) PD400 in breath units. Data were also expressed as (c) % protection of Early Airway Response (EAR, for 0-4 hours) and Late Airway Response (LAR, for 4-8 hours), as estimated by area under the curve for EAR and LAR respectively. And (d) AHR %

[2] = system: allergic sheep challenged with Ascaris suum antigen; assay: Post-antigen airway hyperresponsiveness (AHR), PD400 of inhaled carbachol, in allergic sheep; assay type: in vivo
Experimental: as §1
To assess airway responsiveness, cumulative dose response curves to inhaled carbachol were performed by measuring RL before and after inhalation of buffered saline and after each administration of 10 breaths of increasing concentrations of carbachol (0.25, 0.5, 1.0, 2.0, and 4.0% wt/vol solution). Airway responsiveness was measured by determining the cumulative provocation dose (PD400) of carbachol (in breath units) that increased RL to 400% above baseline. One breath unit was defined as one breath of 1% carbachol solution.
as §2, §3
Thus, the numbers in the Figures as presented were obtained by the formula: Baseline PD400-drugantigenPD400 was x-y;Baseline PD400-ControlantigenPD400 was x-z. x-y/x-z×100=n. 100−n=X % protection in AHR.

[3] = 0.5 mg/kg QD x 4 days oral versus i.v., sheep, listed as 2,5-anhydro-3-O-(α-L-idopyranosyl)-D-mannitol hepta-O-sulfate sodium salt
[4] = i.v. 0.5 mg/kg QD for 4 days, last dose 90 min before antigen, n=5
[5] = inhaled multiple dose 10 mg x 3, n=6
[6] = inhaled multiple dose 10 mg x 3, n=6, sodium salt
[7] = inhaled single dose 10 mg, 30 min before antigen, n=5
[8] = oral 0.5 mg/kg BID x 7 doses, last dose 90 min before antigen, n=5
[9] = oral 0.5 mg/kg x 3 doses, one every 12 h, antigen 90 min after last dose, n=8
[10] = oral 1 mg/kg x 3 doses, one every 12 h, antigen 90 min after last dose, n=8
[11] = oral liquid 0.5 mg/kg QD for 4 days, last dose 90 min before antigen, n=5
[12] = single oral dose 0.5 mg/kg, 90 min before antigen, n=5
[13] = single oral dose 1 mg/kg, 90 min before antigen, n=5

O=S(=O)([O-])OC[C@@H]1O[C@@H](O[C@H]2[C@H](OS(=O)(=O)[O-])[C@@H](COS(=O)(=O)[O-])O[C@@H]2COS(=O)(=O)[O-])[C@H](OS(=O)(=O)[O-])[C@@H](OS(=O)(=O)[O-])[C@@H]1OS(=O)(=O)[O-].[Na+].[Na+].[Na+].[Na+].[Na+].[Na+].[Na+] [SSS-056-01, 2,5-anhydro-3-O-(α-L-idopyranose)-D-mannitol-hepta-O-sulfate-hepta sodium salt]
inhibition of EAR [1, 4]: 77% | inhibition of LAR [1, 4]: 92% | inhibition of LAR [1, 5]: 75% | effect on EAR [1, 6]: without an effect; also recorded: no significant cumulative effect | effect on LAR (in words) [1, 6]: did have an effect on LAR; also recorded: did inhibit LAR | effect on EAR, LAR and AHR ([1]; inhaled single dose 5 mg, 30 min before antigen, n=5): ineffective | effect on EAR [1, 7]: without an effect | inhibition of LAR [1, 7]: 75% | effect on EAR, LAR and AHR ([1]; oral 0.25 mg/kg x 3 doses, one every 12 h, antigen 90 min after last dose, n=8): ineffective | inhibition of EAR [1, 8]: 76% | inhibition of LAR [1, 8]: 96% | inhibition of EAR [1, 9]: 30% | inhibition of LAR [1, 9]: 85% | inhibition of EAR [1, 10]: 54% | inhibition of LAR [1, 10]: 87% | inhibition of EAR [1, 11]: 77% | inhibition of LAR [1, 11]: 95% | effect on EAR, LAR and AHR ([1]; single oral dose 0.25 mg/kg, 90 min before antigen, n=5): ineffective | effect on EAR [1, 12]: without an effect | inhibition of LAR [1, 12]: 71% | effect on EAR [1, 13]: without an effect | inhibition of LAR [1, 13]: 77% | inhibition of AHR ([2]; i.v. 0.5 mg/kg QD for 4 days, PD400 24 h post-antigen, n=5): 100% | inhibition of AHR [2, 5]: 100% | inhibition of AHR [2, 7]: 100% | inhibition of AHR ([2]; oral 0.5 mg/kg BID x 7 doses, n=5): 100% | inhibition of AHR ([2]; oral 0.5 mg/kg x 3 doses, one every 12 h, n=8): 100% | inhibition of AHR ([2]; oral 1 mg/kg x 3 doses, one every 12 h, n=8): 100% | inhibition of AHR ([2]; oral liquid 0.5 mg/kg QD for 4 days, PD400 24 h post-antigen, n=5): 100% | inhibition of AHR [2, 12]: 100% | inhibition of AHR [2, 13]: 100% | bioavailability of oral dose versus intravenous dose [3]: comparable bioavailability

— patent US10829509B2, “Pure heptasulfated disaccharides having improved oral bioavailability” (OPKO Pharmaceuticals, LLC., priority 2016, dated 2020)
